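Results reflect a 48-hour exposure of cells in 96-well plates to compound at five concentrations. GI50: concentration for 50% inhibition of growth.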 Calls of active or inactive are those of the source. No stated cut-off is given here; in the data, active = GI50 up to about 1.1 µM and inactive = higher.
Columns and labels:
Experiment in all cases: inhibition of tumour cell growth, NCI panel, 48 h
Malme-3M = system: Malme-3M
BT-549 = system: BT-549
DU-145 = system: DU-145
NCI-H23 = system: NCI-H23
SK-MEL-5 = system: SK-MEL-5
SR = system: SR
NCI/ADR-RES = system: NCI/ADR-RES
NCI-H460 = system: NCI-H460
786-0 = system: 786-0
CAKI-1 = system: CAKI-1
SNB-75 = system: SNB-75
HL-60 = system: HL-60
LOX IMVI = system: LOX IMVI
SK-OV-3 = system: SK-OV-3
ACHN = system: ACHN
SNB-19 = system: SNB-19
HOP-92 = system: HOP-92
NCI-H522 = system: NCI-H522
RPMI-8226 = system: RPMI-8226
MOLT-4 = system: MOLT-4

SMILES | GI50 (Malme-3M) | GI50 (BT-549) | GI50 (DU-145) | GI50 (NCI-H23) | GI50 (SK-MEL-5) | GI50 (SR) | GI50 (NCI/ADR-RES) | GI50 (NCI-H460) | GI50 (786-0) | GI50 (CAKI-1) | GI50 (SNB-75) | GI50 (HL-60) | GI50 (LOX IMVI) | GI50 (SK-OV-3) | GI50 (ACHN) | GI50 (SNB-19) | GI50 (HOP-92) | GI50 (NCI-H522) | GI50 (RPMI-8226) | GI50 (MOLT-4)
Cc1cc2c(SCc3ccccc3Cl)nc(N)nc2nc1C | > 100 µM (inactive) | > 100 µM (inactive) | > 100 µM (inactive) | > 100 µM (inactive) | > 100 µM (inactive) | > 100 µM (inactive) | > 100 µM (inactive) | > 100 µM (inactive) | > 100 µM (inactive) | > 100 µM (inactive) | > 100 µM (inactive) | > 100 µM (inactive) | > 100 µM (inactive) | > 100 µM (inactive) | > 100 µM (inactive) | > 100 µM (inactive) | 62.4 µM (inactive) | 21.4 µM (inactive) | > 100 µM (inactive) | 
Nc1nc(-c2cccs2)cs1 | > 100 µM (inactive) | 95.5 µM (inactive) | > 100 µM (inactive) | > 100 µM (inactive) | 73.3 µM (inactive) | 69.5 µM (inactive) | 91 µM (inactive) | 47.9 µM (inactive) | > 100 µM (inactive) | > 100 µM (inactive) | > 100 µM (inactive) | > 100 µM (inactive) | 79.1 µM (inactive) | > 100 µM (inactive) | 98.6 µM (inactive) | > 100 µM (inactive) | 26.4 µM (inactive) | 34.9 µM (inactive) | 90.8 µM (inactive) | 
N#Cc1c2c(c(Nc3ccc(F)cc3)n3c1nc1ccccc13)CCC2 | 7.41 µM (inactive) | 7.19 µM (inactive) | 3.61 µM (inactive) | 4.93 µM (inactive) | 3.54 µM (inactive) | 10.2 µM (inactive) | 5.27 µM (inactive) | 7.21 µM (inactive) | 1.78 µM (inactive) | 1.68 µM (inactive) | 6.18 µM (inactive) | 3.96 µM (inactive) | 2.13 µM (inactive) | 9.93 µM (inactive) | 2.29 µM (inactive) | 8.61 µM (inactive) | 6.37 µM (inactive) | 2.2 µM (inactive) | 2.28 µM (inactive) | 7.73 µM (inactive)
COc1ccc(/C=C/C(=O)Oc2cc(O)cc(O)c2)cc1 | 36.6 µM (inactive) | 49.8 µM (inactive) | 56.6 µM (inactive) | 42.1 µM (inactive) | 52.8 µM (inactive) | 25.1 µM (inactive) | 34.4 µM (inactive) | > 100 µM (inactive) | 56.9 µM (inactive) | 17.2 µM (inactive) | 38.1 µM (inactive) | 22 µM (inactive) | 20.1 µM (inactive) | > 100 µM (inactive) | 87.5 µM (inactive) | > 100 µM (inactive) | 93.1 µM (inactive) | 24.4 µM (inactive) | 16.3 µM (inactive) | 11.3 µM (inactive)
O=C1NC(N2CCOCC2)=N/C1=C\c1ccc(O)cc1 | > 100 µM (inactive) | > 100 µM (inactive) | > 100 µM (inactive) | > 100 µM (inactive) |  | > 100 µM (inactive) | > 100 µM (inactive) |  | > 100 µM (inactive) | > 100 µM (inactive) | 15.7 µM (inactive) | > 100 µM (inactive) | > 100 µM (inactive) | > 100 µM (inactive) | > 100 µM (inactive) | > 100 µM (inactive) | > 100 µM (inactive) | 16.4 µM (inactive) | > 100 µM (inactive) | > 100 µM (inactive)
Cc1ccc2c(c1)C=CC(C#N)N2C(=O)Oc1ccccc1 (centres undefined) | 33 µM (inactive) | 22.8 µM (inactive) | 17.9 µM (inactive) | 19.5 µM (inactive) | 24.3 µM (inactive) | 19.4 µM (inactive) | 20.2 µM (inactive) | 29.6 µM (inactive) | 43.7 µM (inactive) | 57.4 µM (inactive) | 40.6 µM (inactive) | 18.9 µM (inactive) | 20.6 µM (inactive) |  | 27 µM (inactive) | 31.8 µM (inactive) | 30.2 µM (inactive) | 16.3 µM (inactive) | 17.9 µM (inactive) | 19.6 µM (inactive)
O=C1c2ccccc2S(=O)(=O)c2c1cccc2[N+](=O)[O-] | 1.46 µM (inactive) | 3.45 µM (inactive) | 4.79 µM (inactive) | 3.5 µM (inactive) | 0.643 µM (active) | 0.902 µM (active) | 2.38 µM (inactive) | > 5.83 µM (inactive) | 1.52 µM (inactive) | 4.21 µM (inactive) | 3.42 µM (inactive) | 1.33 µM (inactive) | 2.14 µM (inactive) | > 6.62 µM (inactive) | 2.44 µM (inactive) | > 10 µM (inactive) | 4.49 µM (inactive) | 1.18 µM (inactive) | 1.63 µM (inactive) | 1.85 µM (inactive)
CCC(=O)NI1OC(=O)c2ccccc21 |  | > 100 µM (inactive) | > 100 µM (inactive) | > 100 µM (inactive) | > 100 µM (inactive) | 36.9 µM (inactive) | > 100 µM (inactive) | > 100 µM (inactive) | > 100 µM (inactive) | 21.6 µM (inactive) | > 100 µM (inactive) | 47.3 µM (inactive) | > 100 µM (inactive) | > 100 µM (inactive) | > 100 µM (inactive) |  | > 100 µM (inactive) | 15.9 µM (inactive) | 45.9 µM (inactive) | > 100 µM (inactive)
COc1cc(/C=N\O)cc(/C=N/O)c1O | 27.7 µM (inactive) | 45.2 µM (inactive) | > 100 µM (inactive) | > 100 µM (inactive) | 40 µM (inactive) | 26.3 µM (inactive) | 58.1 µM (inactive) | 40.2 µM (inactive) |  | 28.6 µM (inactive) | 80.7 µM (inactive) | 27.7 µM (inactive) | 40.9 µM (inactive) | 30.3 µM (inactive) | 26.2 µM (inactive) | 47.6 µM (inactive) | 21.1 µM (inactive) | 75.9 µM (inactive) | 15.5 µM (inactive) | 25.7 µM (inactive)
CCCSc1ccc2[nH]c(N3C(=O)/C(=C/c4ccccc4)N=C3c3ccccc3)cc2c1 | 24.2 µM (inactive) | 19.9 µM (inactive) | 35.6 µM (inactive) | 23.5 µM (inactive) | 14.2 µM (inactive) | 10.5 µM (inactive) | 16.9 µM (inactive) |  | 23.3 µM (inactive) | 27.2 µM (inactive) | 40.6 µM (inactive) | 12.1 µM (inactive) | 20.4 µM (inactive) |  | 39.2 µM (inactive) | 41.4 µM (inactive) | > 50 µM (inactive) | 12.1 µM (inactive) | 12.4 µM (inactive) | 16.3 µM (inactive)
N#CC1CNC(N)NC1N (centres undefined) | > 100 µM (inactive) | > 100 µM (inactive) | > 100 µM (inactive) | > 100 µM (inactive) | > 100 µM (inactive) | 34 µM (inactive) | > 100 µM (inactive) | > 100 µM (inactive) | > 100 µM (inactive) | > 100 µM (inactive) | > 100 µM (inactive) | > 100 µM (inactive) | > 100 µM (inactive) | > 100 µM (inactive) | > 100 µM (inactive) | > 100 µM (inactive) | > 100 µM (inactive) | > 100 µM (inactive) | > 100 µM (inactive) | 
